Values quoted from earlier work as cited in patent publication US11857677B2, “Ready to use injectable formulations of melphalan and processes for preparation thereof” (RK Pharma Solutions LLC, priority 2019, dated 2024).

N[C@@H](Cc1ccc(N(CCCl)CCCl)cc1)C(=O)O [Melphalan, 4-[bis(2-chloroethyl)amino]-L-phenylalanine]
Solubility in water: practically insoluble
